Measured values published in patent EP4813463A2, “TYK2 INHIBITORS AND COMPOSITIONS AND METHODS THEREOF” (Lynk Pharmaceuticals Co. Ltd., priority 2023, dated 2024).
≈ marks a conversion by molar mass, not a printed value. Read-outs that look alike come from different tables or passages of the source.

Experiments:
TYK2-JH2 domain = target: T1, TYK2-JH2 domain (Homo sapiens, UniProt P29597); assay: Binding activity test for JH2 domain of TYK2 (Tb-antibody/tracer FRET); conditions: for IC50: JH2 domain enzyme, 60 min at 25°C, then 4°C overnight, read-out: TYK2 JH2 Binding IC50; for JAK1/TYK2 selectivity: ratio of JAK1 JH2 to TYK2 JH2 binding IC50
T1 construct: JAK1-JH2 domain or TYK2-JH2 domain enzyme in assay buffer
T1 sequence (P29597 589-875 limits assumed): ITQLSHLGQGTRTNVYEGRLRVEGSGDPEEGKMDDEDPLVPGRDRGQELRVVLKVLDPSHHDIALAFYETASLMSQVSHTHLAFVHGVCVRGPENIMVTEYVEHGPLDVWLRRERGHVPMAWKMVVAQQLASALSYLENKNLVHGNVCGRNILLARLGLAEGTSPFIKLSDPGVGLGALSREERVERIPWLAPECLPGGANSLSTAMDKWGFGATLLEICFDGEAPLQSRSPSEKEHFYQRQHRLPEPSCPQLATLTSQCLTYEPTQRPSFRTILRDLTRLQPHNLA
Procedure, shortened: (§1)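 IC50 values (nM) come from TR-FRET readings taken after a 25°C incubation followed by overnight at 4°C. Each well held JH2 domain protein, Tb-antibody, tracer and test compound titrated in 11 threefold steps, with DMSO high and low controls.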

JAK1-JH2 domain = target: T2, JAK1-JH2 domain (Homo sapiens, UniProt P23458); assay: Binding activity test for JH2 domain of JAK1 (Tb-antibody/tracer FRET); conditions: JH2 domain enzyme; 60 min at 25°C, then 4°C overnight; read-out: JAK1 JH2 Binding IC50
T2 construct: JAK1-JH2 domain or TYK2-JH2 domain enzyme in assay buffer
T2 sequence (P23458 583-855 limits assumed): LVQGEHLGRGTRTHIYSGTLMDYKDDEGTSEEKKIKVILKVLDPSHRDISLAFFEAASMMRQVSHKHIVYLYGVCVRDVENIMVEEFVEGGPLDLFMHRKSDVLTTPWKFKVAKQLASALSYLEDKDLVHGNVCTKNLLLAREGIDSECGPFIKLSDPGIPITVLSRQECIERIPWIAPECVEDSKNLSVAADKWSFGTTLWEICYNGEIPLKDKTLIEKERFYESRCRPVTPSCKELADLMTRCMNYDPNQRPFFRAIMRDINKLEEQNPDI
Procedure, shortened: as §1

[1] = tested on: Ba/F3-FL-TYK2-P760L cells; assay: Anti-proliferative assay in engineered Ba/F3 cells (Cell-Titer Glo, 72 h); type: cell-based; conditions: Mus musculus, BaF3, 72 h, 72 h compound treatment, concentration that causes 50% growth inhibition, read-out: Baf3-FL-T2P760L
Procedure, shortened: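 IC50 from luminescent ATP viability after 72 h compound exposure (37 °C, 5% CO2), % inhibition normalised to DMSO-treated cells minus medium blank. IL-3-free Ba/F3-FL-TYK2-P760L (Tel-JAK fusion) cells in 10% FBS RPMI-1640 received 9 three-fold doses, top 20 µM, 0.1% DMSO.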

[2] = Microsomal metabolic stability assay; type: in vitro ADME; conditions: human, liver microsomes, pH 7.4, 0.5 mg/mL microsomal protein, 1 µM test article, 2 mM NADPH; for microsomal CLint at 1 µM: read-out: Human LM Clint; for half-life at 1 µM: read-out: Human LM T1/2
Procedure, shortened: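 Test or control compound (1 µM) incubated with microsomes (0.5 mg/mL protein) in 100 mM potassium phosphate pH 7.4, 1.0 mM EDTA at 37°C, started with NADPH regenerating system (2 mM NADPH). Sampled at 0, 5, 15, 30, 45 min, acetonitrile-quenched, LC/MS/MS. T1/2 from ln %remaining vs time slope; CLint = 0.693/T1/2 per mg protein/mL.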

Caco-2 cell permeability = type: in vitro ADME; conditions: human, Caco-2, 10.0 µM, no p-gp inhibitor; for Papp A→B at 90 min, 10 µM: A to B; for Papp B→A at 90 min, 10 µM: B to A; for efflux ratio at 90 min, 10 µM: read-out: Efflux Ratio: Papp(B-A)/Papp(A-B)
Procedure: Compounds permeability was evaluated using Caco-2 cell lines. HBSS buffer was used as transfer buffer. Appropriate dosing and receiver solutions were applied to the donor and receiver chambers to initiate the transport assay in apical to basolateral (A to B) or basolateral to apical (B to A) directions. Compounds were tested at 10.0 µM in the absence of p-gp inhibitor bidirectionally in duplicates. After incubation at 37°C for 90 mins, donor and receiver samples were analyzed by LC-MS/MS. The intestinal absorption potential was assessed using Papp value and efflux ratio.

pSTAT1 = assay: Phosphorylation inhibition of STAT in human whole blood (IFN-alpha stimulated, flow cytometry); type: cell-based; conditions: T-cell, 20 min, IFN-alpha stimulation 20 mins, CD3 T cells, read-out: pSTAT1 inhibition in hWB (IC50)
Procedure, shortened: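 Fresh human whole blood stimulated 20 min with human universal type I IFN-alpha, then fixed, permeabilised and stained for CD3 and pSTAT1 (Y701). pSTAT1 in T cells read by flow cytometry; IC50 from 4-parameter logistic fit.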

Kinetic solubility = type: physicochemical; conditions: phosphate buffer, pH 7.4, aqueous buffer, kinetic from dmso stock, 100 mM pH 7.4 phosphate buffer, 1% DMSO, room temperature, read-out: Kinetics Solubility_PBS7.4
Procedure: Aliquots of 8 µL of reference and test compound stock solutions (10 mM/5 mM) are added into 792 µL of 100 mM pH 7.4 phosphate buffer. The final DMSO concentration is 1%. Sample tubes are shaken for 2 hours at 1000 rpm at room temperature. Samples are centrifuged at 12000 rpm for 10 min to precipitate un-dissolved particles. And transfer the supernatants to a new tube or plate. Add 5 µL of samples (no diluted, 10 times diluted, and 100 times diluted) and standard curve samples to 95 µL of ACN containing IS for LC-MS/MS analysis. Kinetic Solubilities Values of Exemplary Compounds

[3] = Brain pharmacokinetic studies in rats; type: in vivo, Sprague-Dawley rats
Procedure: Pharmacokinetic profiles of test articles were evaluated in fasted Sprague-Dawley rats. Different kinds of formulations were designed to ensure test articles fully dissolved and wouldn't precipitate in 1:10 SGF or FaSSIF dilution. Typically, Rats were dosed with 3 mg/kg and 5 mg/kg by intravenous injection and oral gavage, respectively. The animal was restrained manually at the designated time points, approximately 150 µL of blood sample was collected via jugular vein for serial bleeding into K2EDTA tubes. The blood samples were maintained in wet ice first and centrifuged to obtain plasma (2000g, 4°C, 5 min) within 30 minutes post sampling. Anesthetizing the rat with the Isoflurane vaporizer to 2%~3% and place its back on the operation table. Spread the animal limbs and pin the limbs on the operation table. Make a cut along the sternum about 4cm long, low enough to expose the sternum's end. Expose the heart and use a 25-gauge needle connected with a 20 mL syringe filled with 20 mL of cold saline to pierce the left ventricle. Maintain the placement of the needle, and slowly push the syringe plunger to wash the brain with saline. The perfusion will be finished within about 2 min and then take the brain out of the body carefully without damaging the tissue. Dry the tissue on filtrate paper, which should be placed on ice, and then weigh the brain tissue and store at -70 °C and analyzed by LC/MS/MS for quantification. PK parameter values, including, but not necessarily limited to, the maximum plasma concentrations (Cmax), and the area under the plasma concentration vs. time curve (AUC) from time zero to 24-hour (AUC0-24h) were determined using WinNonlin program. Table 13. Systemic Pharmacokinetic Parameters in Sprague-Dawley Rats

TYK2 pathway = assay: IFN-γ release in NK92 cells stimulated by IL-12 (ELISA); type: cell-based; conditions: IL-12 2.5ng/mL stimulation 15hrs, IFN-γ in supernatant by ELISA
Procedure: IFN-γ Release in NK92 Cells Stimulated by IL-12
Purpose: To evaluate the inhibition activity of TYK2 inhibitors in NK92 cells on TYK2 pathway through ELISA method.
Procedure: 1) Seeding NK92 cells into 96-well plate, cell density is 1.5E5 cells/well, 100uL/well; 2)Add prepared test articles into indicated wells, 50uL/well, and continue incubate for 1h, at 37°C; 3) After compound treatment, add 50uL/well IL-12 into indicated wells, final concentration of IL-12 is 2.5ng/mL; 4)Incubate cytokine stimulated cells at 37°C for another 15hrs in CO2 incubator; 5) After cytokine stimulation, transfer culture supernatant into a new plate and centrifuge for 5min at 350x g, and detect IFN-γ concentration in the supernatant with ELISA kit; 6) Data analysis with GrapdPad Prism6.0 software. Table 5. IC50 Values of Exemplary Compounds on TYK2 Pathway

Row | Structure (SMILES) | IC50 (TYK2-JH2 domain) [nM] | JAK1/TYK2 selectivity (TYK2-JH2 domain) | IC50 (JAK1-JH2 domain) [nM] | IC50 [1] [nM] | microsomal CLint at 1 µM [2] [µL/min/mg] | half-life at 1 µM [2] [h] | Papp A→B at 90 min, 10 µM (Caco-2 cell permeability) [nm/s] | Papp B→A at 90 min, 10 µM (Caco-2 cell permeability) [nm/s] | efflux ratio at 90 min, 10 µM (Caco-2 cell permeability) | IC50 (pSTAT1) [nM] | solubility kinetic at 2 h (Kinetic solubility) [µM] | half-life ([3]; Sprague-Dawley, rat, brain, rats, iv, 3 mg/kg, solution) [min] | Kp ([3]; Sprague-Dawley, rat, brain, rats, iv, 3 mg/kg, solution, read-out: Brain AUC/Systemic AUC) | half-life ([3]; Sprague-Dawley, rat, systemic (plasma), rats, iv, 3 mg/kg, solution) [min] | AUC ([3]; Sprague-Dawley, rat, systemic (plasma), rats, iv, 3 mg/kg, solution, read-out: AUC) [µg·h/mL] | AUC ([3]; brain, rats, iv, 3 mg/kg, solution) [ng·h/g] | brain exposure in Rats ([3]; result in words) | IC50 (TYK2 pathway) [nM]
1 | [2H]C([2H])([2H])NC(=O)c1cnc(NC(=O)C2CC2)cc1Nc1cnn2ccc(C(C)O)c(OC)c12 (centres unmarked) [Example 23, 6-(Cyclopropanecarboxamido)-4-((5-(1-hydroxyethyl)-4-methoxypyrazolo[1,5-a]pyridin-3-yl)amino)-N-(methyl-d3)nicotinamide] | 0.185 | 72.7 | 13.5 | 166 | 0.17 | 132 | 4.6 | 376 | 82.7 | – | – | – | – | – | – | – | – | –
2 | [2H]C([2H])([2H])NC(=O)c1cnc(Nc2ccc(F)cn2)cc1Nc1cnn2ccc([C@H](O)C(F)(F)F)c(OC)c12 [Example 24, (S)-6-((5-fluoropyridin-2-yl)amino)-4-((4-methoxy-5-(2,2,2-trifluoro-1-hydroxyethyl)pyrazolo[1,5-a]pyridin-3-yl)amino)-N-(methyl-d3)nicotinamide] | 0.066 | 281.8 | 18.6 | 3.87 | 24.6 | 0.937 | – | – | – | 34.6 | 10.4 (≈ 5.27 µg/mL) | – | – | – | – | – | – | –
3 | [2H]C([2H])([2H])NC(=O)c1cnc(NC(=O)C2CC2)nc1Nc1cnn2ccc([C@H](O)C(F)(F)F)c(OC)c12 [Example 33, (S)-2-(cyclopropanecarboxamido)-4-((4-methoxy-5-(2,2,2-trifluoro-1-hydroxyethyl)pyrazolo[1,5-a]pyridin-3-yl)amino)-N-(methyl-d3)pyrimidine-5-carboxamide] | 0.082 | 418.3 | 34.3 | 16 | – | – | 3.9 | 465 | 121 | – | 59.4 (≈ 28.6 µg/mL) | – | – | – | – | – | – | –
4 | COC(=O)c1cnc(NC(=O)C2CC2)cc1Nc1cnn2ccc([C@H](OC)C(F)(F)F)c(OC)c12 [Example 42, Methyl (S)-6-(cyclopropanecarboxamido)-4-((4-methoxy-5-(2,2,2-trifluoro-1-methoxyethyl)pyrazolo[1,5-a]pyridin-3-yl)amino)nicotinate] | 0.202 | 391.2 | 79 | 104 | – | – | – | – | – | – | – | 15 | 1.99 | 20.4 | 0.646 | 1286 | good brain exposure | –
5 | [2H]C([2H])([2H])NC(=O)c1cnc(NC(=O)C2CC2)cc1Nc1cnn2ccc([C@H](OC(C)=O)C(F)(F)F)c(OC)c12 [Example 43, (S)-1-(3-((2-(cyclopropanecarboxamido)-5-((methyl-d3)carbamoyl)pyridin-4-yl)amino)-4-methoxypyrazolo[1,5-a]pyridin-5-yl)-2,2,2-trifluoroethyl acetate] | 0.175 | 407.2 | 71.3 | 20.6 | – | – | – | – | – | 174 | 33.3 | – | – | – | – | – | – | 22.6
6 | [2H]C([2H])([2H])NC(=O)c1cnc(NC(=O)C2CC2)cc1Nc1nn(C)c2ccc(C(O)C(F)(F)F)c(OC)c12 (centres unmarked) [Example 49, 6-(Cyclopropanecarboxamido)-4-((4-methoxy-1-methyl-5-(2,2,2-tritluoro-1-hydroxyethyl)-1H-indazol-3-yl)amino)-N-(methyl-d3)nicotinamide] | 0.136 | 30.13 | 4.1 | 0.729 | 15.7 | 1.47 | – | – | – | 27.9 | 83 (≈ 41.1 µg/mL) | – | – | – | – | – | – | –
7 | CNC(=O)c1cnc(NC(=O)C2CC2)cc1Nc1nn(C)c2cccc(OC)c12 [Example 100, 6-(Cyclopropanecarboxamido)-4-((4-methoxy-1-methyl-1H-indazol-3-yl)amino)-N-methylnicotinamide] | 0.97 | 116.4 | 113 | 505 | – | – | – | – | – | – | – | – | – | – | – | – | – | 86.8
8 | CCC(=O)c1cnc(NC(=O)C2CC2)cc1Nc1ccn2nccc2c1OC [Example 195, N-[4-[(4-Methoxypyrazolo[1,5-a]pyridin-5-yl)amino]-5-propanoyl-2-pyridyl]cyclopropanecarboxamide, reference compound] | 2.96 | 22.68 | 67.1 | 329 | – | – | – | – | – | > 5000 | – | – | – | – | – | – | – | 1500
9 | CCC(=O)c1cnc(NC(=O)C2CC2)cc1Nc1ccc2cn[nH]c2c1OC [Example 196, N-(4-((7-Methoxy-1H-indazol-6-yl)amino)-5-propionylpyridin-2-yl)cyclopropanecarboxamide, reference compound] | 3.93 | 8.04 | 31.6 | – | – | – | – | – | – | > 10000 | – | – | – | – | – | – | – | 923
10 | CCC(=O)c1cnc(NC(=O)C2CC2)cc1Nc1ccc2[nH]cnc2c1OC [Example 197, N-[4-[(4-Methoxy-1H-benzimidazol-5-yl)amino]-5-propanoyl-2-pyridyl] cyclopropanecarboxamide, reference compound] | 2.72 | 6.41 | 17.4 | 426 | – | – | – | – | – | – | – | – | – | – | – | – | – | 515
